In PMC10892419, “UHPLC-MS/MS Assay for Quantification of Legubicin, a Novel Doxorubicin-Based Legumain-Activated Prodrug, and Its Application to Pharmacokinetic and Tissue Distribution Studies” (Molecules, 2024):

Experiments:
[1] = Single-dose pharmacokinetic study of legubicin, i.v.; conditions: free metabolite in plasma; for AUClast / Cmax: n = 3, mean ± SD; for Tmax: n = 3, median [min, max]
Procedure: The pharmacokinetic parameters are outlined in Table 5. […] A power-function model was used to fit the relationship between exposure level (Cmax, AUClast, and AUCINF_obs) parameters and dose, and the power exponent (parameter β) and its 90% confidence interval were obtained (see Table S5).
(§1) The mixture was vortexed for 3 min, and then centrifuged at 22,000× g at 4 °C for 10 min. A final analysis was conducted by injecting 5 µL supernatant into a UHPLC-MS/MS system. Mouse plasma samples were treated in the same way as the rat plasma samples, except for protein precipitation, with 200 µL of 5 pmol/mL IS working solution and injection of 2 µL of supernatant for analysis.
(§2) (1) For the hydrolysis process, an aliquot of 25 µL of rat/mouse plasma was transferred into an Eppendorf tube, and then 50 µL of enzyme digestion buffer and 25 µL of legumain enzyme were placed into the tube. The mixture was vortexed for 1 min, and then incubated in a water bath for 24 h at 37 °C for enzymatic hydrolysis. (2) For the protein precipitation process, 1000 µL of IS working solution (5 pmol/mL and 50 pmol/mL for rat and mouse plasmas, respectively) was added to the enzymatic-hydrolysis solution. Then, the sample was vortexed for 3 min and centrifuged at 22,000× g for 10 min at 4 °C. Analyses were performed on the 3 µL aliquot of the solution used in the UHPLC-MS/MS system.
(§3) Twenty-four rats, inclusive of both sexes, were randomly distributed into four groups. Groups 1, 2, and 3 were single-dose groups, among which the subjects received legubicin via tail intravenous injection (a dose of 1.5, 5, or 15 mg/kg; i.e., 1.36, 4.52, or 13.6 µmol/kg). The fourth group was utilized for a multi-dose study at 5 mg/kg (once-weekly for 4 consecutive weeks). Blood samples of approximately 150 µL were taken from the jugular vein at 0 h (pre-dosing) and at 0.167 h (10 min), 0.5 h, 1 h, 2 h, 4 h, 8 h, 24 h, 48 h, and 72 h post-dosing in the single-dose groups. Samples were also obtained on days 1 and 22 for the multiple-dose group in the same way as for the single-dose groups. However, on days 8 and 15, samples were taken only before and 10 min after administration. The K2EDTA quantities containing blood samples were centrifuged (4 °C, 4000 rpm, 10 min) to collect plasma samples, which were separated into EP tubes and kept at −80 °C until further assay.
(§4) The analysis software (Version 1.5.2, AB Sciex, Vaughan, ON, Canada) was applied to data acquisition and quantification. Pharmacokinetic parameters were calculated with WinNonlin Phoenix (v6.4, Pharsight, Mountain View, CA, USA) with the noncompartmental method, and were presented as mean ± SD (%CV). The “Best fit” strategy in the WinNonlin Phoenix was used for the calculation of elimination half-life and the selection of the elimination phase. Graphs were plotted by GraphPad Software (GraphPad Prism 8.0.2; GraphPad Software, Inc., La Jolla, CA, USA).

[2] = Multiple-dose pharmacokinetic study of legubicin, weekly i.v. for 4 weeks; conditions: free metabolite in plasma, weekly i.v. legubicin 5 mg/kg; for Tmax: median [min, max]; for AUClast / Cmax: n = 3
Procedure: as §1, §2, §3, §4

[3] = Tissue-distribution study after i.v. legubicin or doxorubicin; conditions: after i.v. legubicin 9.05 µmol/kg, HT1080 tumor-bearing mice
Procedure: as §1
Each legubicin administration group corresponded to a sampling time-point (4, 16, 32, 48, 96, 168, and 240 h after administration). […] Blood samples and tumor, heart, and kidney tissues were collected at the sampling time points (4, 16, 32, 48, 96, 168, and 240 h after dosing). In addition, liver, spleen, lung, stomach, small intestine, gonads, brain, skeletal muscle, and skin were also collected at 4, 32, 96, and 240 h post-dose time points in the legubicin administration group. All whole-blood samples were processed according to the same processing steps, described above, for rat whole-blood samples.
as §4

[4] = Storage stability of analytes in rat plasma (method validation); conditions: for Auto-Sampler Stability at 2–8 °C (72 h), Bias / Auto-Sampler Stability at 2–8 °C (72 h), Measured Concentration: processed rat plasma; for Auto-Sampler Stability at 2–8 °C (72 h), Bias / Short-Term Stability at Room Temperature (4 h), Bias / Freeze and Thaw Stability at −80 °C/Room Temperature (3 Cycles), Bias / Long-Term Stability at −80 °C (70 days), Bias: n = 6; for Auto-Sampler Stability at 2–8 °C (72 h), Measured Concentration / Freeze and Thaw Stability at −80 °C/Room Temperature (3 Cycles), Measured Concentration / Long-Term Stability at −80 °C (70 days), Measured Concentration / Short-Term Stability at Room Temperature (4 h), Measured Concentration: n = 6, mean ± SD; for Short-Term Stability at Room Temperature (4 h), Bias / Freeze and Thaw Stability at −80 °C/Room Temperature (3 Cycles), Bias / Long-Term Stability at −80 °C (70 days), Bias / Freeze and Thaw Stability at −80 °C/Room Temperature (3 Cycles), Measured Concentration / Long-Term Stability at −80 °C (70 days), Measured Concentration / Short-Term Stability at Room Temperature (4 h), Measured Concentration: rat plasma; for Short-Term Stability at Room Temperature (4 h), Bias: bias from nominal
Procedure: (§5) By investigating low- and high-concentration stability QCs in six replicates at different storage conditions, autosampler, short-term (bench-top), freeze and thaw, and long-term stability evaluations were conducted.

[5] = Storage stability of analytes in mouse tumor homogenate (method validation)
Procedure: (§6) Tumor-bearing mouse tumor/individual tissue samples were homogenized by adding PBS at a ratio of 1:5 (e.g., 1 g of tumor sample to 5 mL of PBS) to make a tumor/tissue homogenate. A quantity of 60 µL of homogenate was taken as a tumor/tissue sample and processed in the same manner as the mouse plasma sample, with the exception of 240 µL of IS working solution used for protein precipitation.
as §5

[6] = Storage stability of analytes in mouse liver homogenate (method validation)
Procedure: as §6, §5

[7] = female SD rats, single i.v. legubicin 1.5 mg/kg
[8] = female SD rats, single i.v. legubicin 5 mg/kg
[9] = female SD rats, single i.v. legubicin 15 mg/kg
[10] = male SD rats, single i.v. legubicin 1.5 mg/kg
[11] = male SD rats, single i.v. legubicin 5 mg/kg
[12] = male SD rats, single i.v. legubicin 15 mg/kg
[13] = female SD rats, multiple dose (day 22)
[14] = female SD rats, single dose (day 1)
[15] = male SD rats, multiple dose (day 22)
[16] = male SD rats, single dose (day 1)
[17] = high QC (Leu-DOX 4000, DOX 1200 pmol/mL, conjugate 80 nmol/mL)
[18] = high QC (nominal Leu-DOX 4000, DOX 1200 pmol/mL)
[19] = low QC (Leu-DOX 10, DOX 3 pmol/mL, conjugate 0.2 nmol/mL)
[20] = low QC (nominal Leu-DOX 10, DOX 3 pmol/mL)

Compound: COc1cccc2c1C(=O)c1c(O)c3c(c(O)c1C2=O)C[C@@](O)(C(=O)CO)C[C@@H]3O[C@H]1C[C@H](NC(=O)[C@@H](N)CC(C)C)[C@H](O)[C@H](C)O1 [Leu-DOX, N-L-leucyl-doxorubicin]
- AUClast [1, 7]: 0.00644 ± 0.00202 µM·h
- Cmax [1, 7]: 21.5 ± 7.78 nM
- Tmax [1, 7]: 0.167 [0.167, 0.167] h
- AUClast [1, 8]: 0.052 ± 0.0162 µM·h
- Cmax [1, 8]: 72.1 ± 16.0 nM
- Tmax [1, 8]: 0.167 [0.167, 0.167] h
- AUClast [1, 9]: 0.336 ± 0.0625 µM·h
- Cmax [1, 9]: 373 ± 63.2 nM
- Tmax [1, 9]: 0.167 [0.167, 0.167] h
- AUClast [1, 10]: 0.0112 ± 0.0021 µM·h
- Cmax [1, 10]: 29.5 ± 2.74 nM
- Tmax [1, 10]: 0.167 [0.167, 0.167] h
- AUClast [1, 11]: 0.0943 ± 0.0105 µM·h
- Cmax [1, 11]: 145 ± 23.9 nM
- Tmax [1, 11]: 0.167 [0.167, 0.167] h
- AUClast [1, 12]: 1.03 ± 0.244 µM·h
- Cmax [1, 12]: 1100 ± 243 nM
- Tmax [1, 12]: 0.167 [0.167, 0.167] h
- Tmax [2, 13]: 0.167 [0.167, 0.167] h
- AUClast [2, 13]: 0.0604 ± 0.00643 µM·h
- Cmax [2, 13]: 80.3 ± 8.57 nM
- Tmax [2, 14]: 0.167 [0.167, 0.167] h
- AUClast [2, 14]: 0.0387 ± 0.00104 µM·h
- Cmax [2, 14]: 60.0 ± 6.89 nM
- Tmax [2, 15]: 0.167 [0.167, 0.167] h
- AUClast [2, 15]: 0.112 ± 0.014 µM·h
- Cmax [2, 15]: 141 ± 22.0 nM
- Tmax [2, 16]: 0.167 [0.167, 0.167] h
- AUClast [2, 16]: 0.081 ± 0.0133 µM·h
- Cmax [2, 16]: 111 ± 13.5 nM
- brain penetration of the metabolite [3]: neither the metabolite doxorubicin nor free Leu-Dox permeated the brain
- tissue concentration rank order of the metabolite ([3]; n = 6): highest concentration in the liver, followed by the spleen, small intestine, kidney, tumor, lung, skin, gonads, stomach, plasma, skeletal muscle, and heart
- Auto-Sampler Stability at 2–8 °C (72 h), Bias [4, 17]: −6.0%
- Auto-Sampler Stability at 2–8 °C (72 h), Measured Concentration [4, 18]: 3758.33 ± 422.58 nM
- Auto-Sampler Stability at 2–8 °C (72 h), Bias [4, 19]: −0.4%
- Auto-Sampler Stability at 2–8 °C (72 h), Measured Concentration [4, 20]: 9.96 ± 0.48 nM
- Short-Term Stability at Room Temperature (4 h), Bias [4, 17]: −3.2%
- Freeze and Thaw Stability at −80 °C/Room Temperature (3 Cycles), Bias [4, 17]: −5.6%
- Long-Term Stability at −80 °C (70 days), Bias [4, 17]: 7.5%
- Freeze and Thaw Stability at −80 °C/Room Temperature (3 Cycles), Measured Concentration [4, 18]: 3775.00 ± 329.89 pmol/mL
- Long-Term Stability at −80 °C (70 days), Measured Concentration [4, 18]: 4300.00 ± 240.83 pmol/mL
- Short-Term Stability at Room Temperature (4 h), Measured Concentration [4, 18]: 3871.67 ± 390.25 pmol/mL
- Short-Term Stability at Room Temperature (4 h), Bias [4, 19]: −2.4%
- Freeze and Thaw Stability at −80 °C/Room Temperature (3 Cycles), Bias [4, 19]: 2.0%
- Long-Term Stability at −80 °C (70 days), Bias [4, 19]: 0.7%
- Freeze and Thaw Stability at −80 °C/Room Temperature (3 Cycles), Measured Concentration [4, 20]: 10.20 ± 0.70 pmol/mL
- Long-Term Stability at −80 °C (70 days), Measured Concentration [4, 20]: 10.07 ± 1.50 pmol/mL
- Short-Term Stability at Room Temperature (4 h), Measured Concentration ([4]; low QC (nominal Leu-DOX 10, DOX 3 pmol/mL), UHPLC-MS/MS): 9.76 ± 0.41 pmol/mL
- Freeze and thaw stability at -80 °C/ room temperature, Bias ([5]; mouse tumor homogenate, 3 cycles, low QC (Leu-DOX 27, DOX 9 pmol/mL), n = 6): 2.6%
- Freeze and thaw stability at -80 °C/ room temperature, Measured concentration ([5]; mouse tumor homogenate, 3 cycles, low QC (nominal Leu-DOX 27, DOX 9 pmol/mL), n = 6, mean ± SD): 27.70 ± 1.13 pmol/mL
- Short term stability at room temperature (6 h), Bias ([5]; mouse tumor homogenate, low QC (Leu-DOX 27, DOX 9 pmol/mL), n = 6): 2.2%
- Short term stability at room temperature (6 h), Measured concentration ([5]; mouse tumor homogenate, low QC (nominal Leu-DOX 27, DOX 9 pmol/mL), n = 6, mean ± SD): 27.58 ± 1.95 pmol/mL
- Auto-sampler stability at 2-8 °C, Bias ([5]; processed mouse tumor homogenate, 48h, low QC (Leu-DOX 27, DOX 9 pmol/mL), n = 6): -0.4%
- Auto-sampler stability at 2-8 °C, Measured concentration ([5]; processed mouse tumor homogenate, 48h, low QC (nominal Leu-DOX 27, DOX 9 pmol/mL), n = 6, mean ± SD): 26.88 ± 0.94 pmol/mL
- Freeze and thaw stability at -80 °C/ room temperature, Bias ([6]; mouse liver homogenate, 3 cycles, low QC (Leu-DOX 27, DOX 10 pmol/mL), n = 6): 0.9%
- Freeze and thaw stability at -80 °C/ room temperature, Measured concentration ([6]; mouse liver homogenate, 3 cycles, low QC (nominal Leu-DOX 27, DOX 10 pmol/mL), n = 6, mean ± SD): 27.23 ± 1.55 pmol/mL
- Short term stability at room temperature (6 h), Bias ([6]; mouse liver homogenate, low QC (Leu-DOX 27, DOX 10 pmol/mL), n = 6): -4.8%
- Short term stability at room temperature (6 h), Measured concentration ([6]; mouse liver homogenate, low QC (nominal Leu-DOX 27, DOX 10 pmol/mL), n = 6, mean ± SD): 25.72 ± 1.45 pmol/mL
- Auto-sampler stability at 2-8 °C, Bias ([6]; processed mouse liver homogenate, 48h, low QC (Leu-DOX 27, DOX 10 pmol/mL), n = 6): 3.6%
- Auto-sampler stability at 2-8 °C, Measured concentration ([6]; processed mouse liver homogenate, 48h, low QC (nominal Leu-DOX 27, DOX 10 pmol/mL), n = 6, mean ± SD): 27.97 ± 3.06 pmol/mL
